Measured values taken from ChEMBL document CHEMBL4130462, “Natural isoflavone biochanin A as a template for the design of new and potent 3-phenylquinolone efflux inhibitors against Mycobacterium avium” (Eur J Med Chem, 2017).
Values after ≈ are worked out from the molar mass of the structure shown.

Key:
[1] = tested on: Mycolicibacterium smegmatis; assay: Antimycobacterial activity against Mycobacterium smegmatis str. MC2 155 assessed as reduction in bacterial viability incubated for 3 days by MTT assay; assay type: organism-based; settings: 72 h
Mycobacterium avium [2] = assay: Antimycobacterial activity against Mycobacterium avium ATCC 25291 assessed as reduction in bacterial viability incubated for 3 days by MTT assay; assay type: organism-based; settings: mycobacterium avium subsp. avium atcc 25291, 72 h
Mycobacterium avium [3] = assay: Antimycobacterial activity against Mycobacterium avium isolate MAV1 assessed as reduction in bacterial viability incubated for 3 days by MTT assay; assay type: organism-based; settings: in vitro, 72 h
Mycobacterium avium [4] = assay: Antimycobacterial activity against Mycobacterium avium isolate MAV2 assessed as reduction in bacterial viability incubated for 3 days by MTT assay; assay type: organism-based; settings: 72 h
[5] = Safety index, ratio of MTC for test compound to MTC for thioridazine for cytotoxicity in human monocyte-derived macrophages; assay type: cell-based, Macrophage cell line
Mycobacterium avium [6] = settings: 72 h
Description: Antimycobacterial activity against Mycobacterium avium 104 assessed as reduction in bacterial viability incubated for 3 days by MTT assay

Mycobacterium avium [7] = settings: 104 mc'2 3
Mycobacterium avium [8] = settings: 104 mc'2 4
Mycobacterium avium [9] = settings: isolate MAV2
Description: Inhibition of multidrug resistance efflux pump in Mycobacterium avium isolate MAV2 assessed as potentiation of clarithromycin -induced antibacterial activity by measuring clarithromycin MIC at 1/2 MIC incubated for 3 days by MTT assay (Rvb = >1024 ug/ml)

Mycobacterium avium [10] = settings: isolate MAV3
Mycobacterium avium [11] = settings: isolate MAV3; remark: listed apart in the source
Mycobacterium avium [12] = settings: isolate MAV4
Description: Inhibition of multidrug resistance efflux pump in Mycobacterium avium isolate MAV4 assessed as potentiation of clarithromycin -induced antibacterial activity by measuring clarithromycin MIC at 1/2 MIC incubated for 3 days by MTT assay

Mycobacterium avium [13] = settings: isolate MAV4; remark: listed apart in the source
Description: Inhibition of multidrug resistance efflux pump in Mycobacterium avium isolate MAV4 assessed as potentiation of clarithromycin -induced antibacterial activity by measuring clarithromycin MIC at 1/4 MIC incubated for 3 days by MTT assay

[14] = tested on: Mycobacterium avium subsp. avium ATCC 25291
Description: Inhibition of multidrug resistance efflux pump in Mycobacterium avium ATCC 25291 assessed as potentiation of clarithromycin -induced antibacterial activity by measuring clarithromycin MIC at 1/2 MIC incubated for 3 days by MTT assay

[15] = tested on: Mycobacterium avium subsp. avium ATCC 25291; remark: listed apart in the source
Description: Inhibition of multidrug resistance efflux pump in Mycobacterium avium ATCC 25291 assessed as potentiation of clarithromycin -induced antibacterial activity by measuring clarithromycin MIC at 1/4 MIC incubated for 3 days by MTT assay

Mycobacterium avium [16] = settings: 104
Mycobacterium avium [17] = settings: 104 mc'2 4; remark: listed apart in the source
Mycobacterium avium [18] = settings: 104 mc'2 4; remark: listed apart in the source
Mycobacterium avium [19] = settings: isolate MAV1
Mycobacterium avium [20] = settings: isolate MAV2; remark: listed apart in the source
Mycobacterium avium [21] = settings: 104; remark: listed apart in the source
Mycobacterium avium [22] = settings: 104 mc'2 3; remark: listed apart in the source
Mycobacterium avium [23] = settings: 104 mc'2 4; remark: listed apart in the source
Mycobacterium avium [24] = settings: 104 mc'2 4; remark: listed apart in the source
Mycobacterium avium [25] = settings: isolate MAV2; remark: listed apart in the source
[26] = tested on: Mycobacterium avium subsp. avium ATCC 25291; remark: listed apart in the source
Mycobacterium avium [27] = settings: 104 mc'2 3; remark: listed apart in the source
Mycobacterium avium [28] = settings: isolate MAV2; remark: listed apart in the source
Mycobacterium avium [29] = settings: isolate MAV3; remark: listed apart in the source
Mycobacterium avium [30] = settings: isolate MAV4; remark: listed apart in the source
Mycobacterium avium [31] = settings: 104 mc'2 3; remark: listed apart in the source
Mycobacterium avium [32] = settings: 104 mc'2 4; remark: listed apart in the source
Mycobacterium avium [33] = settings: isolate MAV3; remark: listed apart in the source
Mycobacterium avium [34] = settings: isolate MAV3; remark: listed apart in the source
Mycobacterium avium [35] = settings: isolate MAV4; remark: listed apart in the source
[36] = tested on: Mycobacterium avium subsp. avium ATCC 25291; remark: listed apart in the source
[37] = tested on: Mycobacterium avium subsp. avium ATCC 25291; remark: listed apart in the source
Mycobacterium avium [38] = settings: 104; remark: listed apart in the source
Mycobacterium avium [39] = settings: 104 mc'2 3; remark: listed apart in the source
Mycobacterium avium [40] = settings: 104 mc'2 3; remark: listed apart in the source
Mycobacterium avium [41] = settings: isolate MAV2; remark: listed apart in the source
Mycobacterium avium [42] = settings: isolate MAV3; remark: listed apart in the source

In the case of CCCOc1ccc(-c2cn(CCN3CCCCC3)c3ccccc3c2=O)cc1, the MIC [1] is reported as 256 µg/mL (≈ 656 µM), the MIC (Mycobacterium avium [2]) is reported as 256 µg/mL (≈ 656 µM) and the MIC (Mycobacterium avium [3]) is reported as 128 µg/mL (≈ 328 µM). For the same compound, the MIC (Mycobacterium avium [4]) was 256 µg/mL (≈ 656 µM), the selectivity ratio [5] was 4 to 6 and the MIC (Mycobacterium avium [6]) was over 256 µg/mL. It also gave an MIC (Mycobacterium avium [7]) of under 4 µg/mL, an MIC (Mycobacterium avium [8]) of under 4 µg/mL and an MIC (Mycobacterium avium [9]) of 256 µg/mL (≈ 656 µM). For the same compound, the MIC (Mycobacterium avium [10]) was 0.5 µg/mL (≈ 1.28 µM), the MIC (Mycobacterium avium [11]) was 2 µg/mL (≈ 5.12 µM) and the MIC (Mycobacterium avium [12]) was under 0.0625 µg/mL. For the same compound, the MIC (Mycobacterium avium [13]) was 1 µg/mL (≈ 2.56 µM), the MIC [14] was under 0.0625 µg/mL and the MIC [15] was 4 µg/mL (≈ 10.2 µM). It also gave an MIC (Mycobacterium avium [16]) of under 0.125 µg/mL, an MIC (Mycobacterium avium [17]) of under 4 µg/mL and an MIC (Mycobacterium avium [18]) of 128 µg/mL (≈ 328 µM). For the same compound, the MIC (Mycobacterium avium [19]) was under 4 µg/mL, the MIC (Mycobacterium avium [20]) was 256 µg/mL (≈ 656 µM) and the MIC (Mycobacterium avium [21]) was under 0.125 µg/mL. For the same compound, the MIC (Mycobacterium avium [22]) was under 4 µg/mL, the MIC (Mycobacterium avium [23]) was under 4 µg/mL and the MIC (Mycobacterium avium [24]) was 512 µg/mL (≈ 1310 µM). The MIC (Mycobacterium avium [25]) was 512 µg/mL (≈ 1310 µM), the MIC [26] was 8 µg/mL (≈ 20.5 µM) and the MIC (Mycobacterium avium [27]) was 2 µg/mL (≈ 5.12 µM). It also gave an MIC (Mycobacterium avium [28]) of 1 µg/mL (≈ 2.56 µM), an MIC (Mycobacterium avium [29]) of 2 µg/mL (≈ 5.12 µM) and an MIC (Mycobacterium avium [30]) of 2 µg/mL (≈ 5.12 µM). For the same compound, the MIC (Mycobacterium avium [31]) was under 0.125 µg/mL, the MIC (Mycobacterium avium [32]) was under 0.125 µg/mL and the MIC (Mycobacterium avium [33]) was 4 µg/mL (≈ 10.2 µM). The MIC (Mycobacterium avium [34]) was 16 µg/mL (≈ 41 µM), the MIC (Mycobacterium avium [35]) was under 0.125 µg/mL and the MIC [36] was under 0.5 µg/mL. The MIC [37] was 8 µg/mL (≈ 20.5 µM), the MIC (Mycobacterium avium [38]) was under 0.195 µg/mL and the MIC (Mycobacterium avium [39]) was under 0.195 µg/mL. The MIC (Mycobacterium avium [40]) was 3.12 µg/mL (≈ 8 µM), the MIC (Mycobacterium avium [41]) was 3.12 µg/mL (≈ 8 µM) and the MIC (Mycobacterium avium [42]) was 3.12 µg/mL (≈ 8 µM).
